Source: patent US10927136B2, “Phosphorus prodrugs of pyrazolo-substituted pyrimidine sGC stimulators” (Cyclerion Therapeutics, Inc., priority 2016, dated 2021)
Where two headings read alike, the source gives them in different places.

Assays:
[1] = Rat PK following intravenous and oral dosing; type: in vivo, male Sprague-Dawley rats
sGC enzyme = target: T1, sGC enzyme (Homo sapiens, UniProt Q02108+Q02153); assay: cGMP GloSensor cell-based assay, 384-well format; details: for EC50: HEK293 GloSensor 40F cGMP cells, 10 μM DETA-NONOate, read-out: Absolute EC50
T1 construct: sGC enzyme activity values in HEK cells, determined by the GloSensor assay; host or cells: HEK293 expressing GloSensor 40F cGMP
T1 sequence (Q02153 1-619): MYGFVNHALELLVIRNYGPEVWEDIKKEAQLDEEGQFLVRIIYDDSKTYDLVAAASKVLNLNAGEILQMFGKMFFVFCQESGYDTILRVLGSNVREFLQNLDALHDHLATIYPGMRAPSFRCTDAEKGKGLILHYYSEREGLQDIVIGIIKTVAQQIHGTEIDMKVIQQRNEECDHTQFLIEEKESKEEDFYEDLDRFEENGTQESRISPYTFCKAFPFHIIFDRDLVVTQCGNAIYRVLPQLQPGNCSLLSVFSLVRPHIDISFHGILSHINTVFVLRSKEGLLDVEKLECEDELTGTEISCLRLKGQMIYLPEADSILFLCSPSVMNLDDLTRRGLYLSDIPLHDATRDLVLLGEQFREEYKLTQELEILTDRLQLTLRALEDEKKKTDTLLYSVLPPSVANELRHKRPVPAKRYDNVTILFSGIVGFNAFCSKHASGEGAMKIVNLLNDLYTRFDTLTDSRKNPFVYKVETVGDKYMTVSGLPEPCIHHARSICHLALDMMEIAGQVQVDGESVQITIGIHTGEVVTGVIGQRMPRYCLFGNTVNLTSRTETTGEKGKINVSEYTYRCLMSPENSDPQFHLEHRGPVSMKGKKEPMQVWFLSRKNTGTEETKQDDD
T1 sequence (Q02108 1-690): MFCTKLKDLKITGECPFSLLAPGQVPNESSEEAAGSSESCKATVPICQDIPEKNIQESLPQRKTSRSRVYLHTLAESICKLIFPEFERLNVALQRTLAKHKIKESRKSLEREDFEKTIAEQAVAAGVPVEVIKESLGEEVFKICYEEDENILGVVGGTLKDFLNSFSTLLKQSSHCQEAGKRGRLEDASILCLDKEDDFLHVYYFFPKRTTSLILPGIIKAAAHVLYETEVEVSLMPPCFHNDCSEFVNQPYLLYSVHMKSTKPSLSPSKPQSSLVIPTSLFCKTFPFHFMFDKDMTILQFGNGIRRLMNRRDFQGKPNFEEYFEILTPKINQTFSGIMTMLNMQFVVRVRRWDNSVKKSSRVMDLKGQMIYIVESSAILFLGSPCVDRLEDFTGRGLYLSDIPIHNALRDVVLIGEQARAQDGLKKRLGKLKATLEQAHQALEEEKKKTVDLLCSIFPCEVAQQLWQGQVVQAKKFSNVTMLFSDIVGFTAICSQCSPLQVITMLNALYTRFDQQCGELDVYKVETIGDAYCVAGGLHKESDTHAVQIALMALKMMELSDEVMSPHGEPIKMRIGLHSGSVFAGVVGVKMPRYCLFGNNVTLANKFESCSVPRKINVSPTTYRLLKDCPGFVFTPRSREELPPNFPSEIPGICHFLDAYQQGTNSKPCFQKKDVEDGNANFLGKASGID
Text: Human embryonic kidney cells (HEK293) cells expressing GloSensor™ 40F cGMP (Part No: CS182801, Promega) were used to evaluate the activity of test compounds. The luminescent biosensors (engineered luciferase) that were incorporated into these cells detect cGMP formed by the compounds stimulating the sGC enzyme and emit luminescence.
cGMP GloSensor cells were maintained in Dulbecco's Modification of Eagle's Medium (DMEM) supplemented with fetal bovine serum (FBS, 10% final) and hygromycine (200 ug/ml). The day before assay, cells were plated in DMEM with 10% FBS in a 50 μL volume at a density of 1.5×10^4 cells/well in a poly-D-lysine coated 384-well flat white-bottom plate (Corning Cat. No. 35661). Cells were incubated overnight at 37° C. in a humidified chamber with 5% CO2. The next day, medium was removed and cells were replaced with 40 ul/well of GloSensor™, 2 mM (Promega Cat No E1291). Cells were treated for 90 minutes at 25° C. to allow the substrate to equilibrate in the cells. Test compounds and Diethylenetriamine NONOate (DETA-NONOate) was diluted to 3 mM (20×) in serum-free CO2 independent medium and serially diluted at 4× dilutions to create 5× dose curve from which 10 ul was added to the wells (x μM concentration for test compound solution and 10 μM concentration for DETA-NONOate solution; wherein x is one of the following final concentrations).
For the kinetics studies, luminescence was measured right away for 0.2 sec per well with Envision (Perkin Elmer). For endpoint SAR screening, data were collected after 55 min incubation at room temperature.
Data analysis was carried out as indicated above in Example 2A.
sGC enzyme activity values in HEK cells, determined by the GloSensor assay, expressed as Absolute EC50 which is defined as the concentration at which a given compound elicits 50% of the high control response obtained with Compound Y, after normalization.

[2] = plasma, Intermediate 3 dosed 1 mg/kg IV in PEG
[3] = plasma, Intermediate 3 dosed 3.0 mg/kg PO

SMILES	Vol. of Dist ([1]; Compound I-1 1 mg/kg IV in PBS, analyte Compound I-1) [L/kg]	sGC agonism as compared to parent drug (sGC enzyme; GloSensor assay)	EC50 (sGC enzyme; prodrug) [µM]	Vol. of Dist ([1]; Intermediate 3 dosed 1 mg/kg IV in PEG) [L/kg]	Bioavail. (%) ([1]; Intermediate 3 dosed 3.0 mg/kg PO)	AUC(0-inf) [1, 2] [ng·h/mL]	Cmax [1, 2] [ng/mL]	clearance [1, 2] [mL/min/kg]	AUC(0-t) [1, 3] [ng·h/mL]	Cmax [1, 3] [ng/mL]	Tmax [1, 3] [h]	half-life ([1]; plasma, iv, 1 mg/kg, Intermediate 3 dosed 1 mg/kg IV in PEG) [h]	EC50 (sGC enzyme; Parent compound column) [µM]
O=P(O)(O)OC(CNc1nc(-c2cc(-c3ccon3)n(Cc3ccccc3F)n2)ncc1F)(C(F)(F)F)C(F)(F)F [Compound I-1]	4.4 ± 2.6	did not exhibit a high degree of sGC agonism	4.84										
OC(CNc1nc(-c2cc(-c3ccon3)n(Cc3ccccc3F)n2)ncc1F)(C(F)(F)F)C(F)(F)F [Intermediate 3]				9.5	102	1100	227	16	3600 ± 280	250 ± 10	8	7.1	0.072
